Assay results as given in ChEMBL document CHEMBL1154779, “Synthesis and adrenolytic activity of 1-(1H-indol-4-yloxy)-3-(2-(2-methoxy phenoxy)ethylamino)propan-2-ol analogs and its enantiomers. Part 2” (Eur J Med Chem, 2009).
pKi: −log10 of the molar value. Values belong to the molecule of their own block, whether it stands above or below them. The source made the active and inactive calls. The calls are words filed in the database; no cut-off is given here.

Key:
[1] = tested on: Rattus norvegicus; test: Effect on heart rate in anesthetized Wistar rat assessed as P-Q intervals time at 1 mg/kg, iv after 5 mins by electrocardiography; assay type: functional
[2] = tested on: Rattus norvegicus; test: Antiarrhythmic activity in Wistar rat assessed as inhibition of adrenaline-induced premature ventricular beats at 1 mg/kg, iv administered 15 mins before adrenaline challenge measured after 15 mins by electrocardiography; assay type: functional; conditions: Heart
[3] = Displacement of [3H]CGP12177 from beta-1 adrenergic receptor in Wistar rat cerebral cortex membrane by liquid scintillation counting; assay type: tissue-based
[4] = tested on: Rattus norvegicus; test: Hypotensive activity in normotensive Wistar rat assessed as decrease in diastolic blood pressure at 0.25 to 1 mg/kg, iv up to 60 mins; assay type: functional, Artery; set-up: scale not given: the % may be the effect or the level left; conditions: dose mg/kg 0.25-1
[5] = tested on: Rattus norvegicus; test: Hypotensive activity in normotensive Wistar rat assessed as decrease in systolic blood pressure at 0.25 to 1 mg/kg, iv up to 60 mins; assay type: functional; set-up: scale not given: the % may be the effect or the level left; conditions: dose mg/kg 0.25-1
[6] = tested on: Rattus norvegicus; test: Effect on heart rate in anesthetized Wistar rat assessed as heart beats per min at 1 mg/kg, iv after 15 mins by electrocardiography; assay type: functional
[7] = target: T1, Adrenergic receptor alpha-2 (Rattus norvegicus, UniProt P22086+P19328+P22909); test: Displacement of [3H]Clonidine from alpha2 adrenergic receptor in Wistar rat cerebral cortex membrane by liquid scintillation counting; assay type: tissue-based
T1 sequence (P22086 whole entry): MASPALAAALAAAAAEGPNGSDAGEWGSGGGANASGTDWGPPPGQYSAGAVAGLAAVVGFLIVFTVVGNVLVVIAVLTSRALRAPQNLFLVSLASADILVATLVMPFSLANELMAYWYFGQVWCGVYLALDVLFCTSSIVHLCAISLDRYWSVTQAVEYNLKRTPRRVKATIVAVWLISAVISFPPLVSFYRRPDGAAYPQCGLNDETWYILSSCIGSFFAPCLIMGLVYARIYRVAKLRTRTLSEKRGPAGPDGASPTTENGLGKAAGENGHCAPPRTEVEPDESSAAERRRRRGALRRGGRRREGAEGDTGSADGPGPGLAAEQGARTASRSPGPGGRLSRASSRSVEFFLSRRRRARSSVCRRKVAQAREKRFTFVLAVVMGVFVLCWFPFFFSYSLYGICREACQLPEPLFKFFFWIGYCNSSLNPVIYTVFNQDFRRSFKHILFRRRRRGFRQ
T1 sequence (P19328 whole entry): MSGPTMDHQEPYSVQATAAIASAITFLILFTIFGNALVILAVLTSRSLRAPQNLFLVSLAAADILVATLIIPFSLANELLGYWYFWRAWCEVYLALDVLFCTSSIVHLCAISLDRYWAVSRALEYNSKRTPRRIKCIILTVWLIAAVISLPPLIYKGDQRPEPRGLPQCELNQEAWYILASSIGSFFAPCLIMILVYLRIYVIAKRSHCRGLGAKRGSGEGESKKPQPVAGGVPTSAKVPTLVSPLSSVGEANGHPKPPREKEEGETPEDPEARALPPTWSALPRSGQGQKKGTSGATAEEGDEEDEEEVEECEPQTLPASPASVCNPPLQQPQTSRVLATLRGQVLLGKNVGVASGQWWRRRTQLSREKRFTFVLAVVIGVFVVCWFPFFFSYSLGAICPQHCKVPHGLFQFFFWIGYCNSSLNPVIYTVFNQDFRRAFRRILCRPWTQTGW
T1 sequence (P22909 whole entry): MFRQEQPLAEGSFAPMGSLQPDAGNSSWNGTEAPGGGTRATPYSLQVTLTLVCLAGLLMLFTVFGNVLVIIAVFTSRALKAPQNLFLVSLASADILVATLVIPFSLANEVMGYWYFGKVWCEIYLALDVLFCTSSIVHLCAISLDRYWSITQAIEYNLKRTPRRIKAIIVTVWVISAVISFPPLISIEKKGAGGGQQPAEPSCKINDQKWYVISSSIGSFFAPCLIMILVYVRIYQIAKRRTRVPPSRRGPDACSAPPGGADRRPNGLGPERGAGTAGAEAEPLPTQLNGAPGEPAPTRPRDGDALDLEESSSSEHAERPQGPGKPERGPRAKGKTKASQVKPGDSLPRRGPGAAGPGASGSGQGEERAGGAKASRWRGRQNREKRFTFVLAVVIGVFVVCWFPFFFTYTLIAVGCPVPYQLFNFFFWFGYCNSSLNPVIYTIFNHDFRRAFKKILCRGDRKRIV

[8] = organism: Oryctolagus cuniculus; test: (§1) Spasmolytic activity in rabbit ileum assessed as decrease in amplitude of contraction at 100 uM measured for 5 mins; assay type: functional
[9] = as §1; assay type: functional, Oryctolagus cuniculus; set-up: scale not given: the % may be the effect or the level left
[10] = tested on: Rattus norvegicus; test: Hypotensive activity in normotensive Wistar rat assessed as decrease in diastolic blood pressure at 0.125 mg/kg, iv up to 60 mins; assay type: functional, organism-based; set-up: dose 0.125 mg/kg; conditions: Artery
[11] = tested on: Rattus norvegicus; test: Effect on heart rate in anesthetized Wistar rat assessed as decrease in heart rate at 1 mg/kg, iv up to 15mins by electrocardiography; assay type: functional; set-up: scale not given: the % may be the effect or the level left
[12] = organism: Oryctolagus cuniculus; test: (§2) Spasmolytic activity in rabbit ileum assessed as decrease in amplitude of contraction at 10 uM measured for 5 mins; assay type: functional
[13] = as §2; assay type: functional, Oryctolagus cuniculus; set-up: scale not given: the % may be the effect or the level left
[14] = tested on: Rattus norvegicus; test: Effect on heart rate in anesthetized Wistar rat assessed as heart beats per min at 1 mg/kg, iv after 5 mins by electrocardiography; assay type: functional
[15] = tested on: Rattus norvegicus; test: Hypotensive activity in normotensive Wistar rat assessed as decrease in systolic blood pressure at 0.125 mg/kg, iv up to 60 mins; assay type: functional, organism-based; set-up: dose 0.125 mg/kg; conditions: Artery
[16] = tested on: Rattus norvegicus; test: Hypotensive activity in normotensive Wistar rat assessed as decrease in systolic blood pressure at 0.0625 mg/kg, iv up to 60 mins; assay type: functional, organism-based; set-up: dose 0.0625 mg/kg; conditions: Artery
[17] = tested on: Rattus norvegicus; test: Hypotensive activity in normotensive Wistar rat assessed as decrease in systolic blood pressure at 0.125 to 1 mg/kg, iv up to 60 mins; assay type: functional, organism-based; conditions: Artery
[18] = tested on: Rattus norvegicus; test: Hypotensive activity in normotensive Wistar rat assessed as decrease in diastolic blood pressure at 0.0625 mg/kg, iv up to 60 mins; assay type: functional, organism-based; set-up: dose 0.0625 mg/kg; conditions: Artery
[19] = tested on: Rattus norvegicus; test: Hypotensive activity in normotensive Wistar rat assessed as decrease in diastolic blood pressure at 1 to 5 mg/kg, iv up to 60 mins; assay type: functional, organism-based; conditions: Artery
[20] = tested on: Rattus norvegicus; test: Hypotensive activity in normotensive Wistar rat assessed as decrease in diastolic blood pressure at 0.0312 mg/kg, iv up to 60 mins; assay type: functional, organism-based; set-up: dose 0.0312 mg/kg; conditions: Artery
[21] = tested on: Rattus norvegicus; test: Hypotensive activity in normotensive Wistar rat assessed as decrease in systolic blood pressure at 0.0312 mg/kg, iv up to 60 mins; assay type: functional, organism-based; set-up: dose 0.0312 mg/kg; conditions: Artery
[22] = tested on: Rattus norvegicus; test: Hypotensive activity in normotensive Wistar rat assessed as decrease in systolic blood pressure at 0.125 mg/kg, iv up to 30 mins; assay type: functional, organism-based; set-up: dose 0.125 mg/kg; conditions: Artery
[23] = tested on: Rattus norvegicus; test: Hypotensive activity in normotensive Wistar rat assessed as decrease in diastolic blood pressure at 0.125 mg/kg, iv up to 10 mins; assay type: functional, organism-based; set-up: dose 0.125 mg/kg; conditions: Artery

Structure (SMILES): COc1ccccc1OCCNCC(O)COc1ccc(OC)c2[nH]ccc12 (racemic)
Activity [1]: 59.4 ms
ED50 [2]: 0.45 mg/kg
pKi [3]: 6.90
Activity [4]: 13%
Activity [5]: 12%
Activity [6]: 300 bpm
Ki [7]: 180.8 nM
Activity [8]: inactive
Activity [9]: 10%
Activity [10]: inactive
Activity [11]: 10%
Activity [12]: inactive
Activity [13]: 10%
Activity [14]: 292.2 bpm
Activity [15]: inactive

Structure (SMILES): COc1ccccc1OCCNC[C@@H](O)COc1c(OC)ccc2[nH]ccc12
Activity [1]: 42.7 ms
ED50 [2]: 0.16 mg/kg
pKi [3]: 5.47
Activity [6]: 387 bpm
Ki [7]: 43 nM
Activity [8]: Active
Activity [16]: inactive
Activity [17]: Active
Activity [18]: inactive
Activity [12]: Active
Activity [14]: 403.2 bpm
Activity [19]: Active

Structure (SMILES): COc1ccccc1OCCNC[C@H](O)COc1c(OC)ccc2[nH]ccc12
Activity [1]: 46 ms
ED50 [2]: 0.3 mg/kg
Activity [20]: inactive
pKi [3]: 6.05
Activity [6]: 367.6 bpm
Ki [7]: 60.9 nM
Activity [8]: Active
Activity [17]: Active
Activity [21]: inactive
Activity [12]: Active
Activity [14]: 381 bpm
Activity [19]: Active

Structure (SMILES): COc1ccccc1OCCNCC(O)COc1c(OC)ccc2[nH]ccc12 (racemic)
Activity [1]: 51.3 ms
ED50 [2]: 0.38 mg/kg
pKi [3]: 5.80
Activity [4]: 8%
Activity [5]: 7%
Activity [6]: 364.7 bpm
Activity [22]: Active
Ki [7]: 56.9 nM
Activity [8]: Active
Activity [23]: Active
Activity [17]: Active
Activity [12]: inactive
Activity [14]: 372.9 bpm
Activity [19]: Active

The next lines start with results.

pKi [3]: 7.23
Ki [7]: 277.2 nM
Structure (SMILES): COc1ccccc1OCCNC[C@H](O)COc1ccc(OC)c2[nH]ccc12
Activity [1]: 56.7 ms
ED50 [2]: 0.53 mg/kg
Activity [4]: 13%
Activity [5]: 12%
Activity [6]: 275.9 bpm
Activity [9]: 10%
Activity [10]: inactive
Activity [11]: 10%
Activity [13]: 10%
Activity [14]: 292.3 bpm
Activity [15]: inactive

pKi [3]: 6.28
Ki [7]: 108.8 nM
Structure (SMILES): COc1ccccc1OCCNC[C@@H](O)COc1ccc(OC)c2[nH]ccc12
Activity [1]: 59.7 ms
ED50 [2]: 0.38 mg/kg
Activity [4]: 13%
Activity [5]: 12%
Activity [6]: 255.2 bpm
Activity [10]: inactive
Activity [11]: 10%
Activity [14]: 259 bpm
Activity [15]: inactive
